# Active and inactive are the calls of the source. The calls are words filed in the database; no cut-off is given here.
# Experiments:
# [1] = Acute toxicity in mouse assessed as reduction in body weight at 30 mg/kg, ip administered once daily and measured every day for 20 days; format: organism-based; conditions: in vivo, 480 h, time 20 day
# [2] = Acute toxicity in mouse assessed as pathological changes in spleen at 10 to 20 mg/kg, ip administered once daily for 20 days by hematoxyin-eosin staining based analysis; format: organism-based; conditions: in vivo, 480 h, dose 10-20 mg/kg, time 20 day
# [3] = MRT (0 to 24 hrs) in C57BL/6J mouse at 20 mg/kg, iv measured up to 24 hrs by LC-MS/MS analysis; format: ADME, organism-based; conditions: in vivo
# [4] = MRT (0 to infinity) in C57BL/6J mouse at 20 mg/kg, ip measured up to 24 hrs by LC-MS/MS analysis; format: ADME, organism-based; conditions: in vivo
# [5] = Half life in C57BL/6J mouse at 20 mg/kg, iv measured up to 24 hrs by LC-MS/MS analysis; format: ADME, organism-based; conditions: in vivo
# [6] = test system: Mus musculus; experiment: Downregulation of IDO1 expression in hippocampus of LPS induced mouse at 20 mg/kg, ip pretreated with compound administered once daily for 2 days followed by LPS injection by Western blotting analysis; format: functional, organism-based; conditions: time 2.0 day
# [7] = test system: BV-2; experiment: Antiinflammatory activity in LPS stimulated mouse BV-2 cells assessed as decrease in IDO1 expression pretreated with compound for 1 hr followed by LPS stimulation and measured after 24 hrs; format: functional, cell-based; conditions: dose 0.25-2 µM, time 25.0 hrs, DDE = dose-dependent effect
# [8] = AUC (0 to infinity) in C57BL/6J mouse at 20 mg/kg, iv measured up to 24 hrs by LC-MS/MS analysis; format: ADME, organism-based; parameters: dose 20 mg/kg, time < 24 hrs, route iv; conditions: in vivo
# [9] = target: Tryptophan 2,3-dioxygenase (Homo sapiens, UniProt P48775); experiment: Inhibition of TDO (unknown origin) assessed as reduction in N-formylkynurenine formation using L-tryptophan as substrate incubated for 75 mins by UV absorbance based analysis
# Chain of Tryptophan 2,3-dioxygenase (P48775 whole entry): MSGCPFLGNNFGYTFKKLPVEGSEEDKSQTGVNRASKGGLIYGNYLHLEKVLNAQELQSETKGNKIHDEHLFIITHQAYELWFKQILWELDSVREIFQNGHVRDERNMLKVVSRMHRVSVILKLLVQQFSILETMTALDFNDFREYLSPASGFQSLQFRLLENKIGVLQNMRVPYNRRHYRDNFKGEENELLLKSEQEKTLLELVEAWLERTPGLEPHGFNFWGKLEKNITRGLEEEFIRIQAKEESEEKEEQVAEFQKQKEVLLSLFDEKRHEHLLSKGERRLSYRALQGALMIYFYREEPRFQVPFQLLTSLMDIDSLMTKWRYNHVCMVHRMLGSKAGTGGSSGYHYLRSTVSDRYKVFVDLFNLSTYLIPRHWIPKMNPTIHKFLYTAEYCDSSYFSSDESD
# [10] = test system: Mus musculus; experiment: Antidepressant activity in LPS induced mouse model assessed as rescue of decrease in immobility time at 20 mg/kg, ip pretreated with compound administered once daily for 2 days followed by LPS injection by forced swim test; format: functional, organism-based; conditions: time 2.0 day
# [11] = Bioavailability in C57BL/6J mouse at 20 mg/kg, […] measured up to 24 hrs by LC-MS/MS analysis; format: ADME, organism-based; conditions: in vivo
# [12] = Acute toxicity in mouse assessed as pathological changes in kidney at 10 to 20 mg/kg, ip administered once daily for 20 days by hematoxyin-eosin staining based analysis; format: organism-based; conditions: in vivo, 480 h, dose 10-20 mg/kg, time 20 day
# [13] = AUC (0 to 24 hrs) in C57BL/6J mouse at 20 mg/kg, iv measured up to 24 hrs by LC-MS/MS analysis; format: ADME, organism-based; parameters: dose 20 mg/kg, time < 24 hrs, route iv; conditions: in vivo
# [14] = test system: Mus musculus; experiment: Downregulation of kynurenine level in serum of LPS induced mouse at 20 mg/kg, ip pretreated with compound administered once daily for 2 days followed by LPS injection by UHPLC-HRMS analysis; format: functional, organism-based; conditions: time 2.0 day
# [15] = test system: Mus musculus; experiment: Antiinflammatory activity in LPS induced mouse assessed as reduction in TNF-alpha expression in hippocampus at 20 mg/kg, ip pretreated with compound administered once daily for 2 days followed by LPS injection by qPCR analysis; format: functional, organism-based; conditions: time 2.0 day
# [16] = test system: BV-2; experiment: Antiinflammatory activity in LPS stimulated mouse BV-2 cells assessed as reduction in TNF-alpha expression at 0.5 to 2 uM pretreated with compound for 1 hr followed by LPS stimulation and measured after 24 hrs by qRT-PCR analysis; format: functional, cell-based; conditions: dose 0.5-2 µM, time 25.0 hrs
# [17] = Acute toxicity in mouse assessed as pathological changes in liver at 30 mg/kg, ip administered once daily for 20 days by hematoxyin-eosin staining based analysis; format: organism-based; conditions: in vivo, 480 h, time 20 day
# [18] = target: Indoleamine 2,3-dioxygenase 1 (Homo sapiens, UniProt P14902); experiment: Inhibition of IDO1 (unknown origin) assessed as reduction in kynurenine production using L-tryptophan as substrate at 50 uM incubated for 1 hr by absorbance based microplate reader analysis relative to control
# Chain of Indoleamine 2,3-dioxygenase 1 (P14902 whole entry, looked up): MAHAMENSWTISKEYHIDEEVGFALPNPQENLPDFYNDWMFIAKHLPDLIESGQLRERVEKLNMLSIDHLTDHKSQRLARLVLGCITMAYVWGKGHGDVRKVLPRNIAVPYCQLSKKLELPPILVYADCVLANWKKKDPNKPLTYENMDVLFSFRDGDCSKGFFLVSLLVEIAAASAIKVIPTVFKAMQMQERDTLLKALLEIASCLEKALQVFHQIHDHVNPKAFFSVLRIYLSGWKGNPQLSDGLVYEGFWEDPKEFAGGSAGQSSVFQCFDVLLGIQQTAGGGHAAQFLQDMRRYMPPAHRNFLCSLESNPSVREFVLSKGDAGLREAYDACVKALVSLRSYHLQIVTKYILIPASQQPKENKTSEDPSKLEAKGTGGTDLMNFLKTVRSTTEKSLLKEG
# [19] = AUC (0 to infinity) in C57BL/6J mouse at 20 mg/kg, ip measured up to 24 hrs by LC-MS/MS analysis; format: ADME, organism-based; parameters: dose 20 mg/kg, time < 24 hrs, route ip; conditions: in vivo
# [20] = Acute toxicity in mouse assessed as change in body weight at 10 to 20 mg/kg, ip administered once daily and measured every day for 20 days; format: organism-based; conditions: in vivo, 480 h, dose 10-20 mg/kg, time 20 day
# [21] = test system: Mus musculus; experiment: Antiinflammatory activity in LPS induced mouse assessed as rescue of increase in IDO1 expression in activated microglia at 20 mg/kg, ip pretreated with compound administered once daily for 2 days followed by LPS injection by immunofluorescence analysis; format: functional, organism-based; conditions: time 2.0 day
# [22] = test system: BV-2; experiment: Antiinflammatory activity in LPS stimulated mouse BV-2 cells assessed as reduction in iNOS expression at 0.5 to 2 uM pretreated with compound for 1 hr followed by LPS stimulation and measured after 24 hrs by qRT-PCR analysis; format: functional, cell-based; conditions: dose 0.5-2 µM, time 25.0 hrs
# [23] = Acute toxicity in mouse assessed as pathological changes in heart at 10 to 20 mg/kg, ip administered once daily for 20 days by hematoxyin-eosin staining based analysis; format: organism-based; conditions: in vivo, 480 h, dose 10-20 mg/kg, time 20 day
# [24] = test system: Mus musculus; experiment: Antiinflammatory activity in LPS induced mouse assessed as reduction in IL-1beta expression in hippocampus at 20 mg/kg, ip pretreated with compound administered once daily for 2 days followed by LPS injection by qPCR analysis; format: functional, organism-based; conditions: time 2.0 day
# [25] = test system: BV-2; experiment: Antiinflammatory activity in LPS stimulated mouse BV-2 cells assessed as reduction in IL-1beta expression at 0.5 to 2 uM pretreated with compound for 1 hr followed by LPS stimulation and measured after 24 hrs by qRT-PCR analysis; format: functional, cell-based; conditions: dose 0.5-2 µM, time 25.0 hrs
# [26] = test system: Mus musculus; experiment: Antidepressant activity in LPS induced mouse model assessed as rescue of decrease in immobility time at 20 mg/kg, ip pretreated with compound administered once daily for 2 days followed by LPS injection by tail suspension test; format: functional, organism-based; conditions: time 2.0 day
# [27] = Acute toxicity in mouse assessed as pathological changes in lung at 10 to 20 mg/kg, ip administered once daily for 20 days by hematoxyin-eosin staining based analysis; format: organism-based; conditions: in vivo, 480 h, dose 10-20 mg/kg, time 20 day
# [28] = Apparent volume of distribution in C57BL/6J mouse at 20 mg/kg, […] measured up to 24 hrs by LC-MS/MS analysis; format: ADME, organism-based; conditions: in vivo, read-out: Vz
# [29] = AUC (0 to 24 hrs) in C57BL/6J mouse at 20 mg/kg, ip measured up to 24 hrs by LC-MS/MS analysis; format: ADME, organism-based; parameters: dose 20 mg/kg, time < 24 hrs, route ip; conditions: in vivo
# [30] = Cmax in C57BL/6J mouse at 20 mg/kg, iv measured up to 24 hrs by LC-MS/MS analysis; format: ADME, organism-based; parameters: time < 24 hrs, dose 20 mg/kg, route iv; conditions: in vivo
# [31] = test system: Mus musculus; experiment: Antiinflammatory activity in LPS induced mouse assessed as rescue of increase in TNF-alpha expression in activated microglia at 20 mg/kg, ip pretreated with compound administered once daily for 2 days followed by LPS injection; format: functional, organism-based; conditions: time 2.0 day
# [32] = test system: BV-2; experiment: Antiinflammatory activity in LPS stimulated mouse BV-2 cells assessed as reduction in COX2 expression at 0.5 to 2 uM pretreated with compound for 1 hr followed by LPS stimulation and measured after 24 hrs by qRT-PCR analysis; format: functional, cell-based; conditions: dose 0.5-2 µM, time 25.0 hrs
# [33] = Half life in C57BL/6J mouse at 20 mg/kg, ip measured up to 24 hrs by LC-MS/MS analysis; format: ADME, organism-based; conditions: in vivo
compound,measurement,setting,value
c1ccc2c(c1)[nH]c1c(-c3c[nH]cn3)nccc12,Activity,[1],Toxic
same,Activity,[2],Non-Toxic
same,MRT last at 24 h,[3],1.81 h
same,MRT inf,[4],1.04 h
same,half-life,[5],2.31 h
same,Activity,[6],Active
same,Activity,[7],Dde
same,AUC(0-inf),[8],8560 ng·h/mL
same,IC50,[9],1150 nM
same,Activity,[10],Active
same,bioavailability,[11],52.5%
same,Activity,[12],Non-Toxic
same,AUC(0-t) at 24 h,[13],8550 ng·h/mL
same,Activity,[14],Active
same,Activity,[15],Active
same,Activity,[16],Active
same,Activity,[17],Toxic
same,inhibition,[18],98%
same,AUC(0-inf),[19],4460 ng·h/mL
same,Activity,[20],Non-Toxic
same,Activity,[21],Active
same,Activity,[22],Active
same,Activity,[23],Non-Toxic
same,Activity,[24],Active
same,Activity,[25],Active
same,Activity,[26],Active
same,Activity,[27],Non-Toxic
same,Vd,[28],7.84 L/kg
same,AUC(0-t) at 24 h,[29],4490 ng·h/mL
same,Cmax,[30],5540 ng/mL
same,Activity,[31],Active
same,Activity,[32],Active
same,half-life,[33],0.77 h

# — ChEMBL document CHEMBL5137086, “Discovery of 1-(Hetero)aryl-β-carboline Derivatives as IDO1/TDO Dual Inhibitors with Antidepressant Activity” (J Med Chem, 2022)
